Measured values from patent US20260365628A1, “SUBSTITUTED 3,4-DIHYDROQUINOLINONE INHIBITORS OF TSHR” (Septerna, Inc., priority 2022, published 2026).

Target: T1, hTSHR (Homo sapiens, UniProt P16473)
T1 construct: expressed in transfected cells
Assay: hTSHR TR-FRET cAMP Assay (inhibition of M22-stimulated cAMP production)
Assay type: cell-based
Details: Expi293F Inducible cells stably expressing hTSHR; cAMP HTRF; stimulated with EC80 of anti-TSHR antibody M22; 15 min compound preincubation, 30 min at 37° C.; read-out: Activity (IC50 bins)
Description: Assays were performed using Expi293F Inducible cells (Invitrogen) stably expressing hTSHR via a pcZeo TetO DNA plasmid. Cell lines were maintained in suspension in Expi293 Expression Medium (ThermoFisher Scientific) supplemented with 10 µg/mL Blasticidin and 10 μg/mL Zeocin and incubated at 37° C., 8% CO2, with shaking. hTSHR cells were incubated overnight at 32° C., 5% C02, with shaking, but […] Doxycycline. Assay-ready aliquots were prepared by harvesting each cell type separately 24-hours post-induction. Cells were pelleted at 4° C., resuspended in Expi293 Expression media+10% DMSO, aliquoted, and kept frozen at −80° C. until ready for use.
For the assay, concentration-response curves of test and reference compounds were added to 384-well plates using an Echo 650 liquid handler (Beckman Coulter) and backfilled with DMSO to a final concentration of 0.5%. cAMP was measured using the cisbio cAMP Gs dynamic HTRF kit (PerkinElmer) according to manufacturer instructions. Aliquots of frozen hTSHR cells were quickly thawed and washed with phosphate-buffered saline (Sigma-Aldrich) to remove media and DMSO. The cells were resuspended in kit-supplied Stimulation Buffer at 0.8×10^6 cells/mL. 7.5 μL of the hTSHR cell dilution were added to each well of the assay plate and incubated with the compounds for 15 minutes in a 37 C, 0% CO2 incubator. 2.5 μL of Vehicle control or an EC80 concentration of recombinant human anti-TSHR antibody (M22, Creative Biolabs) was added to stimulate cAMP production. Cells were incubated with for 30 minutes at 37° C., 0% CO2. Following this incubation, the cells were lysed and accumulated cAMP was detected through the addition of kit-supplied lysis buffer containing d2-reagent and Eu-cryptate antibody. The HTRF signal was quantified using a BMG Clariostar plate reader optimized for HTRF assays. The HTRF ratio was determined by dividing the signal output at […] by that at 620 nm. Data were normalized to the signal produced by the EC80 concentration of either M22 or FSH (0% inhibition) and vehicle (no agonist, 100% inhibition).

T1 sequence (P16473 21-764): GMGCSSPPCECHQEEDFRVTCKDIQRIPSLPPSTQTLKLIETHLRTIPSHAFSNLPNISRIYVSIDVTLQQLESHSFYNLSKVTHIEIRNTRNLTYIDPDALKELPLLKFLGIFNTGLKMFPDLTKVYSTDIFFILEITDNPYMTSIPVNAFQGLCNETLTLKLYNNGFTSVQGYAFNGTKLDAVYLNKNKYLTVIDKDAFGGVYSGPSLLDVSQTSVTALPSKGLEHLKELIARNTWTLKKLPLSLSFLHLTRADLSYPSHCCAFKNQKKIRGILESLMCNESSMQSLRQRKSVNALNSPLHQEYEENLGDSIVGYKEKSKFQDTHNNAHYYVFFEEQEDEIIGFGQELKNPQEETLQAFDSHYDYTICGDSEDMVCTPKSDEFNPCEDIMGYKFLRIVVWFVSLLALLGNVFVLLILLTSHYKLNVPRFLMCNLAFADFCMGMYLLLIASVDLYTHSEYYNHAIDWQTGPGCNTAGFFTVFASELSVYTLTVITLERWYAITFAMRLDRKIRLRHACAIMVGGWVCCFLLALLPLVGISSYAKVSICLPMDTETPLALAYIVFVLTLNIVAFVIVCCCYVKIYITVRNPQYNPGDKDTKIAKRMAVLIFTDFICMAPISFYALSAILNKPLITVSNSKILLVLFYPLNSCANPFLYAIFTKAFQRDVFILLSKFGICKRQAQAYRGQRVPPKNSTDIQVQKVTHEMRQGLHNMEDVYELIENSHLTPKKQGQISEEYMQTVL

| Structure (SMILES) | IC50 |
| --- | --- |
| CC(C)(C)NC(=O)Nc1ccc2c(c1)CCC(=O)N2Cc1ccc(F)cc1 [Example 27, 1-(tert-butyl)-3-(1-(4-fluorobenzyl)-2-oxo-1,2,3,4-tetrahydroquinolin-6-yl)urea] | 100 to 1000 nM |
| CCC(c1ccccc1)N1C(=O)CCc2cc(NC(=O)NC(C)(C)C)ccc21 (centres unmarked) [Example 28, 1-(tert-butyl)-3-(2-oxo-1-(1-phenylpropyl)-1,2,3,4-tetrahydroquinolin-6-yl)urea] | > 1000 nM |
| CC(C)(C)NC(=O)Nc1ccc2c(c1)CC(C)(C)C(=O)N2Cc1ccccc1 [Example 29, 1-(1-benzyl-3,3-dimethyl-2-oxo-1,2,3,4-tetrahydroquinolin-6-yl)-3-(tert-butyl)urea] | > 1000 nM |
| CC(C)(C)NC(=O)Nc1ccc2c(c1)CCC(=O)N2C(CO)c1ccccc1 (centres unmarked) [Example 30, 1-(tert-butyl)-3-(1-(2-hydroxy-1-phenylethyl)-2-oxo-1,2,3,4-tetrahydroquinolin-6-yl)urea] | > 1000 nM |
| CC(C)(C)NC(=O)Nc1ccc2c(c1)CC(=O)N2Cc1ccccc1 [Example 31, 1-(1-benzyl-2-oxo-3H-indol-5-yl)-3-tert-butylurea] | > 1000 nM |
| CC(C)C1Cc2cc(NC(=O)NC(C)(C)C)ccc2N(Cc2ccccc2)C1=O (centres unmarked) [Example 32, 1-(1-benzyl-3-isopropyl-2-oxo-1,2,3,4-tetrahydroquinolin-6-yl)-3-(tert-butyl)urea] | > 1000 nM |
| C[C@H](c1ccccc1)N1C(=O)COc2cc(NC(=O)NC(C)(C)C)ccc21 [Example 34, (R)-1-(tert-butyl)-3-(3-oxo-4-(1-phenylethyl)-3,4-dihydro-2H-benzo[b][1,4]oxazin-7-yl)urea] | 100 to 1000 nM |
| C[C@H](c1cccc(Cl)c1)N1C(=O)COc2cc(NC(=O)NC(C)(C)C)ccc21 [Example 36, (R)-1-(tert-butyl)-3-(4-(1-(3-chlorophenyl)ethyl)-3-oxo-3,4-dihydro-2H-benzo[b][1,4]oxazin-7-yl)urea] | > 1000 nM |
| CC(C)(C)NC(=O)Nc1ccc2c(c1)oc(=O)n2Cc1ccccc1 [Example 38, 1-(3-benzyl-2-oxo-2,3-dihydrobenzo[d]oxazol-6-yl)-3-(tert-butyl)urea] | > 1000 nM |
| C[C@H](c1ccccc1)N1C(=O)N(C)Cc2cc(NC(=O)NC(C)(C)C)ccc21 [Example 45A, 3-tert-butyl-1-{3-methyl-2-oxo-1-[(1R)-1-phenylethyl]-4H-quinazolin-6-yl}urea] | > 1000 nM |
| CC(C)(C)NC(=O)Nc1ccc2c(c1)CC(CO)C(=O)N2Cc1ccccc1 (centres unmarked) [Example 51, 1-(1-benzyl-3-(hydroxymethyl)-2-oxo-1,2,3,4-tetrahydroquinolin-6-yl)-3-(tert-butyl)urea] | > 1000 nM |
| C[C@H](c1cccc(Cl)c1)N1C(=O)N(C)Cc2cc(NC(=O)NC(C)(C)C)ccc21 [Example 52] | > 1000 nM |
| Cc1cccc(CN2C(=O)CCc3cc(NC(=O)NC(C)(C)C)ccc32)c1C#N [Example 53, 3-tert-butyl-1-{1-[(2-cyano-3-methylphenyl)methyl]-2-oxo-3,4-dihydroquinolin-6-yl}urea] | 100 to 1000 nM |
| CC(C)(C)NC(=O)Nc1ccc2c(c1)CCC(=O)N2Cc1cccc(C(F)(F)F)c1C#N [Example 59, 1-(tert-butyl)-3-(1-(2-cyano-3-(trifluoromethyl)benzyl)-2-oxo-1,2,3,4-tetrahydroquinolin-6-yl)urea] | 100 to 1000 nM |
| C[C@@H](c1cccc(C(F)(F)F)c1)N1C(=O)CCc2cc(NC(=O)NC(C)(C)C)ccc21 [Example 60, (S)-3-tert-butyl-1-(2-oxo-1-{1-[3-(trifluoromethyl)phenyl]ethyl}-3,4-dihydroquinolin-6-yl)urea] | < 100 nM |
| C[C@@H](c1ccccc1C#N)N1C(=O)CCc2cc(NC(=O)NC(C)(C)C)ccc21 [Example 61, (S)-1-(tert-butyl)-3-(1-(1-(2-cyanophenyl)ethyl)-2-oxo-1,2,3,4-tetrahydroquinolin-6-yl)urea] | 100 to 1000 nM |

Other lines, results leading:

| IC50 | Structure (SMILES) |
| --- | --- |
| < 100 nM | CC(C)(C)NC(=O)Nc1ccc2c(c1)CCC(=O)N2Cc1cccc(F)c1 [Example 26, 1-(tert-butyl)-3-(1-(3-fluorobenzyl)-2-oxo-1,2,3,4-tetrahydroquinolin-6-yl)urea] |
| < 100 nM | CC(C)(C)NC(=O)Nc1ccc2c(c1)OCC(=O)N2Cc1cccc(Cl)c1 [Example 33, 3-tert-butyl-1-{4-[(3-chlorophenyl)methyl]-3-oxo-2H-1,4-benzoxazin-7-yl}urea] |
| < 100 nM | C[C@@H](c1ccccc1)N1C(=O)COc2cc(NC(=O)NC(C)(C)C)ccc21 [Example 35, (S)-1-(tert-butyl)-3-(3-oxo-4-(1-phenylethyl)-3,4-dihydro-2H-benzo[b][1,4]oxazin-7-yl)urea] |
| < 100 nM | C[C@@H](c1cccc(Cl)c1)N1C(=O)COc2cc(NC(=O)NC(C)(C)C)ccc21 [Example 37, (S)-1-(tert-butyl)-3-(4-(1-(3-chlorophenyl)ethyl)-3-oxo-3,4-dihydro-2H-benzo[b][1,4]oxazin-7-yl)urea] |
| < 100 nM | CC(C)(C)NC(=O)Nc1ccc2c(c1)CCC(=O)N2Cc1cc(C(F)(F)F)ccc1F [Example 39, 1-(tert-butyl)-3-(1-(2-fluoro-5-(trifluoromethyl)benzyl)-2-oxo-1,2,3,4-tetrahydroquinolin-6-yl)urea] |
| < 100 nM | Cc1cccc(CN2C(=O)COc3cc(NC(=O)NC(C)(C)C)ccc32)c1 [Example 40, 1-(tert-butyl)-3-(4-(3-methylbenzyl)-3-oxo-3,4-dihydro-2H-benzo[b][1,4]oxazin-7-yl)urea] |
| < 100 nM | C[C@H]1Oc2cc(NC(=O)NC(C)(C)C)ccc2N(Cc2ccccc2)C1=O [Example 41, (R)-1-(4-benzyl-2-methyl-3-oxo-3,4-dihydro-2H-benzo[b][1,4]oxazin-7-yl)-3-(tert-butyl)urea] |
| < 100 nM | C[C@@H]1Oc2cc(NC(=O)NC(C)(C)C)ccc2N(Cc2ccccc2)C1=O [Example 42, (S)-1-(4-benzyl-2-methyl-3-oxo-3,4-dihydro-2H-benzo[b][1,4]oxazin-7-yl)-3-(tert-butyl)urea] |
| < 100 nM | C[C@@H](c1ccccc1)N1C(=O)N(C)Cc2cc(NC(=O)NC(C)(C)C)ccc21 [Example 45, 3-tert-butyl-1-{3-methyl-2-oxo-1-[(1S)-1-phenylethyl]-4H-quinazolin-6-yl}urea] |
| < 100 nM | C[C@@H](c1cccc(Cl)c1)N1C(=O)N(C)Cc2cc(NC(=O)NC(C)(C)C)ccc21 [Example 46] |
| < 100 nM | CN1Cc2cc(NC(=O)NC(C)(C)C)ccc2N(Cc2cccc(Cl)c2)C1=O [Example 47, 1-(tert-butyl)-3-(1-(3-chlorobenzyl)-3-methyl-2-oxo-1,2,3,4-tetrahydroquinazolin-6-yl)urea] |
| < 100 nM | Cc1cccc(CN2C(=O)CCc3cc(NC(=O)NC(C)(C)C)ccc32)c1F [Example 48, 1-(tert-butyl)-3-(1-(2-fluoro-3-methylbenzyl)-2-oxo-1,2,3,4-tetrahydroquinolin-6-yl)urea] |
| < 100 nM | Cc1ccc(F)c(CN2C(=O)CCc3cc(NC(=O)NC(C)(C)C)ccc32)c1 [Example 49, 1-(tert-butyl)-3-(1-(2-fluoro-5-methylbenzyl)-2-oxo-1,2,3,4-tetrahydroquinolin-6-yl)urea] |
| < 100 nM | CC(C)(C)NC(=O)Nc1ccc2c(c1)OCC(=O)N2Cc1cccc(C(F)(F)F)c1 [Example 50, 1-(tert-butyl)-3-(3-oxo-4-(3-(trifluoromethyl)benzyl)-3,4-dihydro-2H-benzo[b][1,4]oxazin-7-yl)urea] |
| < 100 nM | CC(C)(C)NC(=O)Nc1ccc2c(c1)CCC(=O)N2Cc1cccc(C(F)(F)F)c1F [Example 54, 1-(tert-butyl)-3-(1-(2-fluoro-3-(trifluoromethyl)benzyl)-2-oxo-1,2,3,4-tetrahydroquinolin-6-yl)urea] |
| < 100 nM | CC(C)(C)NC(=O)Nc1ccc2c(c1)CCC(=O)N2Cc1cc(C(F)(F)F)ccc1C#N [Example 55, 3-tert-butyl-1-(1-{[2-cyano-5-(trifluoromethyl)phenyl]methyl}-2-oxo-3,4-dihydroquinolin-6-yl) urea] |
| < 100 nM | Cc1cccc([C@H](C)N2C(=O)CCc3cc(NC(=O)NC(C)(C)C)ccc32)c1 [Example 56, (S)-1-(tert-butyl)-3-(2-oxo-1-(1-(m-tolyl)ethyl)-1,2,3,4-tetrahydroquinolin-6-yl)urea] |
| < 100 nM | Cc1cccc([C@H](C)N2C(=O)COc3cc(NC(=O)NC(C)(C)C)ccc32)c1 [Example 57, (S)-1-(tert-butyl)-3-(3-oxo-4-(1-(m-tolyl)ethyl)-3,4-dihydro-2H-benzo[b][1,4]oxazin-7-yl)urea] |
| < 100 nM | C[C@@H](c1ccccc1F)N1C(=O)CCc2cc(NC(=O)NC(C)(C)C)ccc21 [Example 58, 3-tert-butyl-1-{1-[(1S)-1-(2-fluorophenyl)ethyl]-2-oxo-3,4-dihydroquinolin-6-yl}urea] |
